# According to patent US11826399B2, “Chlorotoxin agents and uses thereof” (Eisai Inc., priority 2017, dated 2023):
# Experiment: Biodistribution after single Carboxylated CTX-Cryptophycin dose in NRP1 WT or KO PC-3 xenografts in SCID mice
# Assay type: in vivo, mouse
# Conditions: single 0.6 mg/kg Carboxylated CTX-Cryptophycin IV
# Experimental: Cells used were human prostate cancer cells, PC-3 (ATCC® CRL-1435™) engineered at WuXi AppTec to generate an isogenic pair of cell lines WT (PC-3-sg1-4 WT cells) and KO (PC-3-sg1-9 KO cells) for NRP1. Mice used were female, ˜6 week old, immune compromised NOD. SCID from Charles River laboratories. Identical experiments were performed side by side in the isogenic xenograft models. Drug administration was performed when tumor size reached ˜300 to 500 mm^3. A single dose of Carboxylated CTX-Cryptophycin at 0.6 mg/kg was administered (to mimic dose where differential efficacy was observed) intravenously in the following vehicle: 10% EtOH, 5% Tween80 and 85% saline. Animals were euthanized and whole blood (cardiac puncture) and tumor tissues harvested at predetermined time points from 5 min to 96 h post-dose (n=3 mice per time point). Blood samples were centrifuged to obtain plasma and subsequently stored at −20° C. or lower pending analysis. Tumors were harvested by removing the entire specimen from surrounding tissues. Specimens were immediately rinsed with normal saline solution, blotted dry, then weighed and stored at −20° C. or lower pending analysis. Tumor tissue was cryofractured using the Covaris Cryoprep System (Covaris, Inc.). Once pulverized, samples were lysed in 3:1 (v:w) 1×PBS containing 1× Halt™ Protease Inhibitor Cocktail and 1×EDTA solution (Thermo Scientific, Product No. 78430). Plasma and homogenized tissue samples were extracted via protein precipitation with 3:1 (v:v) methanol:acetonitrile 1:1 (v:v) containing 0.1% acetic acid. […] Pharmacokinetic (PK) parameters were calculated using non-compartmental analysis in C3PO (a proprietary Eisai compound database and pharmacokinetic analysis tool). Mean plasma and tissue concentrations were used to calculate mean PK parameters.
compound,measurement,setting,value
COc1ccc(CC2NC(=O)C=CCC(C(C)C3OC3c3ccc(CN4CCN(CCC(C)(C)SC)CC4)cc3)OC(=O)C(CC(C)C)NC(=O)C(C)(C)CNC2=O)cc1Cl (stereo not shown) [Cryptophycin Metabolite 1],Tumor AUC0-96 h of Cryptophycin Metabolite 1,NRP1 KO tumors,385 pmol·h/g
same,Tumor tmax of Cryptophycin Metabolite 1,NRP1 KO tumors,24 h
same,Tumor AUC0-96 h of Cryptophycin Metabolite 1,NRP1 WT tumors,1494 pmol·h/g
same,Tumor tmax of Cryptophycin Metabolite 1,NRP1 WT tumors,48 h
